These results are taken from patent publication US12522596B2, “Compounds as GLP-1R agonists” (Terns Pharmaceuticals, Inc., priority 2021, dated 2026).

The nature of data set [1]: Rat pharmacokinetics, oral dosing. In kind it is in vivo, Sprague-Dawley rats. As to conditions: rat; for AUC(0-t) / Cmax / half-life: male, Sprague-Dawley, plasma, po, 3 mg/kg, rat plasma. As for the experimental part: Oral dosing: Compounds were formulated at 0.3 mg/mL or 0.6 mg/mL in a solution comprising 5% polyethylene glycol 400 and 95% (12% (w/v) sulfobutyl-β-cyclodextrin in water) (v/v). Formulated compounds were administered to male, 7-11 week old Sprague-Dawley rats by oral gavage at a dose of 3 mg/kg.
Sample collection: Blood collections of about 0.2 mL per time point were performed from jugular vein or other suitable site of each animal, into pre-chilled commercial EDTA-K2 tubes and placed on wet ice until centrifugation. Blood samples were processed for plasma by centrifugation at approximately 4° C., 3,200 g for 10 min. Plasma was collected and transferred into pre-labeled 96 well plate or polypropylene tubes, quick frozen over dry ice and kept at −60° C. or lower until LC-MS/MS analysis.
Data analysis: Plasma concentration versus time data was plotted in graph and analyzed by non-compartmental approaches using the Phoenix WinNonlin 6.3 software program. Related PK parameters were calculated according to dosing route, e.g., CL, Vdss and C0 for intravenous administration, Cmax, Tmax or % F for extravascular administration, and T1/2, AUC(0-t), AUC(0-inf), MRT(0-t), MRT(0-inf) for all routes.

The nature of data set [2]: Metabolic stability in rat hepatocytes. It is filed as in vitro ADME. As to conditions: cryopreserved hepatocytes, 1 μM. As for the experimental part: (§1) Test compounds were incubated in rat and human hepatocytes and stability was assessed from the substrate […] approach. Test compounds were dissolved in dimethyl sulfoxide (DMSO) to create a 10 mM Stock, and then further diluted to create a 1000× Working Stock of 1 mM with DMSO in 96-well plates for test compounds and the positive control (midazolam). Vials containing cryopreserved hepatocytes were removed from the liquid nitrogen tank and immediately immersed in a 37° C. water bath. The vials were shaken gently until the contents had thawed and were then immediately emptied into 48 mL of pre-warmed HT Medium in a 50 mL conical tube. Cells remaining in the vial were resuspended with 1.0 mL of pre-warmed HT Medium and added to the conical tube. The tube was capped and then gently inverted several times to resuspend the hepatocytes. The cell suspension was centrifuged at 50×g at room temperature for 5 minutes and the supernatant discarded. The cell pellet was loosened by gently swirling the centrifuge tube and was re-suspended in 4 mL of warm Dulbecco's Modified Eagle medium (DMEM). Cell density was determined by a cell counter by Nexcelom, and DMEM medium was added to obtain a target density of 1×10^6 cells/mL. The assay was carried out in 96-well microtiter plates. Test Compounds were incubated at 1 μM with 1×10^6 cells/mL hepatocytes in DMEM for 0, 30, 60, 120 and 240 minutes. The incubation was carried out with gentle shaking at 37° C. under a humid atmosphere of 95% air/5% CO2. The volume of the incubation mixture was 37 μL with a final 0.1% DMSO. At each of the time points, the incubation was stopped by adding 150 μL quenching solution (100% acetonitrile, 0.1% formic acid containing bucetin as an internal standard for positive ESI mode). Subsequently, the mixtures were vortexed for 20 min and centrifuged at 4,000 RPM at 10° C. The supernatant (80 μL) was transferred to a clean 96-well plate and analyzed by LC-MS/MS. Midazolam at 1 μM with a final 0.1% DMSO was included as a positive control to verify assay performance. The percent parent remaining, intrinsic and predicted hepatic clearance and t1/2 were calculated. All samples were analyzed by LC-MS/MS using an AB Sciex API 4000 instrument, coupled to a Shimadzu LC-20AD LC Pump system. Separation was achieved using a Waters Atlantis T3 dC18 reverse phase HPLC column (20 mm×2.1 mm) at a flow rate of 0.5 mL/min. The mobile phase consisted of 0.1% formic acid in water (solvent A) and 0.1% formic acid in 100% acetonitrile (solvent B). Elution conditions are detailed below.
(§2) The ion optics of each test compound were optimized for their declustering potential (DP), […] (CE), collision-cell exit potential (CXP) and used in a selected ion monitoring experiment in the positive ion mode. The peak area ratio of each test compound to internal standard was then evaluated for stability. The extent of metabolism was calculated based on the disappearance of the test compound, compared to its initial concentration. The initial rates of clearance of the test compound were calculated using the linear regression plot of semi-log % remaining of the compound versus time. The elimination rate constant (k) of the linear regression plot was then used to determine t1/2 and the intrinsic clearance (CLint) using the following formula, where Chepatocyte (million cells/mL) is the cell density of the incubation:
(§3) The predicted hepatic clearance (CLhep) was calculated using the well stirred method with the following formula with CLint(in vivo) normalized based on liver weight: […]
(§4) The relevant physiological parameters of liver weight, blood flow, and hepatocellularity for various species are listed below: […]

The subject of another data set is rat hepatocytes. Nature of the data set: Metabolic stability in rat hepatocytes. It is filed as in vitro ADME. As to the method:
as §1, §2, §3, §4

Data set [3] is described as follows: Metabolic stability in human hepatocytes. In kind it is in vitro ADME. As to conditions: cryopreserved hepatocytes; human hepatocytes, 1 μM. As to the method:
as §1, §2, §3, §4

The nature of data set [4]: Caco-2 passive permeability and efflux ratio. It is filed as in vitro ADME. As to conditions: human; for efflux ratio at 120 min, 5 μM: pH 7.4, Caco-2, Papp (B-to-A)/Papp (A-to-B), read-out: Efflux Ratio (ER); for Papp at 120 min, 5 μM: Caco-2, 5 μM, pH 7.4, 120 minutes. As for the experimental part:
Caco-2 cells (clone C2BBe1) were obtained from American Type Culture Collection (Manassas, VA). Cell monolayers were grown to confluence on collagen-coated, microporous membranes in 12-well assay plates. Details of the plates and their certification are shown below. The permeability assay buffer was Hanks' balanced salt solution containing 10 mM HEPES and 15 mM glucose at a pH of 7.4. The buffer in the receiver chamber also contained 1% bovine serum albumin. The dosing solution concentration was 5 μM of test article in the assay buffer. Cell monolayers were dosed on the apical side (A-to-B) or basolateral side (B-to-A) and incubated at 37° C. with 5% CO2 in a humidified incubator. Samples were taken from the donor and receiver chambers at 120 minutes. Each determination was performed in duplicate. The flux of lucifer yellow was also measured post-experimentally for each monolayer to ensure no damage was inflicted to the cell monolayers during the flux period. All samples were assayed by LC-MS/MS using electrospray ionization. The apparent permeability (Papp) and percent recovery were calculated as follows:
[formula] [formula] where, dCr/dt is the slope of the cumulative receiver concentration versus time in μM s^−1; Vr is the volume of the receiver compartment in cm^3; Vd is the volume of the donor compartment in cm^3; A is the area of the insert (1.13 cm^2 for 12-well); CA is the average of the nominal dosing concentration and the measured 120-minute donor concentration in μM; CN is the nominal concentration of the dosing solution in μM; Cr^final is the cumulative receiver concentration in μM at the end of the incubation period; Cd^final is the concentration of the donor in μM at the end of the incubation period. Efflux ratio (ER) is defined as Papp (B-to-A)/Papp (A-to-B).
On the technique in general: Passage across Caco-2 layers is used to estimate intestinal permeability.

The term AUC(0-t) denotes the area under the concentration-time curve up to a stated or last time point. Higher therefore signals high exposure. The Cmax is the peak of the concentration-time curve. What is called half-life is the time needed for the level to fall by half in the phase considered. For orientation: CLint scaled means a measure of how fast metabolising enzymes remove a compound, apart from limits set by blood flow. As usually defined, the Papp is the rate of passage across a membrane or cell layer, normalised by area and donor concentration.

In data set [1] (3 mg/kg PO (0.3 mg/mL)), `N#Cc1ccc(COc2cccc(C3CCN(Cc4nc5ccc(C(=O)O)cc5n4Cc4cncs4)CC3)n2)c(F)c1` [Compound 2] showed an AUC(0-t) of 384 ± 182 ng·h/mL, a peak concentration (Cmax) of 117 ± 61 ng/mL and a half-life of 3.3 ± 0.44 h. In data set [1] (3 mg/kg PO (0.6 mg/mL)), this compound showed an AUC(0-t) of 525 ± 138 ng·h/mL, a Cmax of 491 ± 256 ng/mL and a half-life of 2.66 ± 1.74 h. The “PK properties relative to Reference Compound A” value in data set [1] (dosed orally) was “significantly enhanced PK properties”. In addition, in data set [1] (oral administration), the “higher AUC relative to Reference Compound A” value is given as 4-6 fold. In data set [2], this compound gave a CLint scaled at 1 μM of 42.6 ± 2.46 mL/min/kg and a half-life at 1 μM of 1.32 ± 0.083 h. The “CLint relative to reference standard” value in the data set on rat hepatocytes is given as “not significantly different”. In data set [3], this compound showed an intrinsic clearance (CLint scaled) at 1 μM of 15.5 ± 0.82 mL/min/kg and a half-life at 1 μM of 2.61 ± 0.154 h. Further, in data set [4], the efflux ratio at 120 min, 5 μM was found to be 1.66 and the Papp at 120 min, 5 μM was 31.5 ×10⁻⁶ cm/s.

For the compound `Cc1ncsc1Cn1c(CN2CCC(c3cccc(OCc4ccc(C#N)cc4F)n3)CC2)nc2ccc(C(=O)O)cc21` [Compound 4], in data set [1] (3 mg/kg PO (0.3 mg/mL)), the area under the curve AUC(0-t) is 28.3 ± 21.7 ng·h/mL, the peak concentration (Cmax) turned out to be 21.6 ± 9.8 ng/mL and the half-life is 0.96 ± 0.33 h. Besides, in data set [2], the CLint scaled at 1 μM came to 36 ± 1.36 mL/min/kg and the half-life at 1 μM was determined as 1.62 ± 0.0477 h. In the data set on rat hepatocytes, the “CLint relative to reference standard” value is reported as “significantly lower” and the “Half-life relative to reference” value is given as “significantly higher”. In data set [3], this compound came in with an intrinsic clearance (CLint scaled) at 1 μM of 24.3 ± 0.74 mL/min/kg and a half-life at 1 μM of 1.66 ± 0.0508 h. Besides, in data set [4], the efflux ratio at 120 min, 5 μM was determined as 0.975 and the apparent permeability coefficient (Papp) at 120 min, 5 μM amounted to 49.9 ×10⁻⁶ cm/s.

In the case of `N#Cc1ccc(COc2ccnc(C3CCN(Cc4nc5ccc(C(=O)O)cc5n4Cc4cncs4)CC3)n2)c(F)c1` [Compound 20], in data set [2], the intrinsic metabolic clearance (CLint scaled) at 1 μM turned out to be 38.9 ± 1.14 mL/min/kg and the half-life at 1 μM was found to be 1.49 ± 0.044 h. In the data set on rat hepatocytes, the “CLint relative to reference standard” value is on record as “significantly lower” and the “Half-life relative to reference” value was “significantly higher”. In data set [3], this compound registered a CLint scaled at 1 μM of 10.6 ± 0.66 mL/min/kg and a half-life at 1 μM of 3.82 ± 0.241 h. In data set [4], the efflux ratio at 120 min, 5 μM is 9.77 and the apparent permeability (Papp) at 120 min, 5 μM turned out to be 2.82 ×10⁻⁶ cm/s.

In data set [2], `N#Cc1ccc(COc2cccc(N3CCN(Cc4nc5ccc(C(=O)O)cc5n4Cc4cncs4)CC3)n2)c(F)c1` [Compound 30] returned a CLint scaled at 1 μM of 32.5 ± 0.73 mL/min/kg and a half-life at 1 μM of 1.71 ± 0.0383 h. Besides, in the data set on rat hepatocytes, the “CLint relative to reference standard” value is “significantly lower” and the “Half-life relative to reference” value is listed as “significantly higher”. Also, in data set [3], the intrinsic metabolic clearance (CLint scaled) at 1 μM was determined as 7.18 ± 0.31 mL/min/kg and the half-life at 1 μM is 5.58 ± 0.244 h. Moreover, in data set [4], the efflux ratio at 120 min, 5 μM amounted to 2.14 and the apparent permeability coefficient (Papp) at 120 min, 5 μM was 9.41 ×10⁻⁶ cm/s.

`CC1(c2ccc(C#N)cc2F)Oc2cccc(C3CCN(Cc4nc5ccc(C(=O)O)cc5n4Cc4cncs4)CC3)c2O1` (stereo not shown) [Compound 31]: in data set [2], the CLint scaled at 1 μM was found to be 30.2 ± 1.5 mL/min/kg and the half-life at 1 μM is 1.83 ± 0.0907 h. In the data set on rat hepatocytes, the “CLint relative to reference standard” value is “significantly lower” and the “Half-life relative to reference” value was “significantly higher”. Further, in data set [3], the CLint scaled at 1 μM was found to be 17.5 ± 1.33 mL/min/kg and the half-life at 1 μM is 2.29 ± 0.174 h. In addition, in data set [4], the efflux ratio at 120 min, 5 μM was 1.31 and the apparent permeability coefficient (Papp) at 120 min, 5 μM was 16.8 ×10⁻⁶ cm/s.

Turning to `N#Cc1ccc(COc2cccc(C3CCN(Cc4nc5ccc(C(=O)O)cc5n4C[C@@H]4CCO4)CC3)n2)c(F)c1` [Reference Compound A, reference compound], in data set [1] (3 mg/kg PO (0.3 mg/mL)), the AUC(0-t) came to 60.6 ± 9.01 ng·h/mL, the highest concentration (Cmax) was found to be 37.7 ± 8.09 ng/mL and the half-life is 2 ± 1.07 h. Also, in data set [1] (3 mg/kg PO (0.6 mg/mL)), the exposure AUC(0-t) turned out to be 121 ± 36.9 ng·h/mL, the peak level (Cmax) was 102 ± 57 ng/mL and the half-life is 1.68 ± 0.44 h. Also, in data set [2], the CLint scaled at 1 μM came to 48.2 ± 1.33 mL/min/kg and the half-life at 1 μM amounted to 1.21 ± 0.0425 h. In data set [3], this compound registered a CLint scaled at 1 μM of 7.18 ± 0.45 mL/min/kg and a half-life at 1 μM of 5.79 ± 0.379 h. The Papp at 120 min, 5 μM in data set [4] came out at 15.5 ×10⁻⁶ cm/s.
